From patent publication EP0576227A2, “2'-Deoxy-2',2'-difluoro(2,6,8-substituted) purine nucleosides having anti-viral and anti-cancer activity and intermediates” (ELI LILLY AND COMPANY, priority 1992, dated 1993)

Experiments:
[1] = test system: Human Cytomegalovirus (HCMV) strain AD169; assay: Human Cytomegalovirus Test (plaque inhibition in WI-38 cells); type: cell-based; conditions: read-out: Percent Plaque Inhibition at Specified µg/ml conc.
Procedure: WI-38 cells (American Type Culture Collection; CCL-35) were seeded into 24-well plates in MEM media (GIBCO) supplemented with 10% fetal bovine serum and penicillin/streptomycin. The plates wre incbated at 37°C, in 5 percent carbon dioxide in a humidified incubator for 3 days. Human Cytomegalovirus (HCMV) strain AD169 (American Type Culture Collection) was added to each well (40 plaque forming unites in 100 µl of media) and the virus was allowed to adsorb to the cells for 2 hours at room temperature. The compound of Example 5 was dissolved in 100 percent dimethylsulfoxide at a concentration of 20 mgs/ml and diluted with media to yield final concentrations of 50, 25, 12.5, 6.25, 3.13, 1.6, 0.8, 0.4, 0.2, and 0.1 µg/ml in one set of experiments and 32, 10, 3.2, 1, and 0.32 µg/ml in another set of experiments. Each concentration was done in duplicate. In all experiments, Cytovene (DHPG) was used as a positive control.
The infected cells were incubated for 10 days at 37°C, 5 percent carbon dioxide, in an humidified incubator without changes of media. After incubation, the cells were fixed for at least 15 minutes with 10 percent formalin and rinsed with water. After rinsing, the cells were stained for at least 15 minutes with crystal violet and allowed to dry. HCMV induced plaques were counted with the aid of an iverted microscope. The number of viral plaques appearing in cells treated with each concentration of the Example 5 compound was compared to the number of viral plaques in cells left untreated ("no-drug control") and the percent inhibition of viral plaque formation was calculated. The concentration of the Example 5 compound required to inhibit viral plaque formation by 50 percent was determined using linear regression analysis.

Hepatitis B Virus = Hepatitis B Virus Test (HBV DNA in supernatant of Hep10A cells, PCR / Southern blot); type: cell-based, human Hepatitis B Virus (HBV); conditions: 240 h
Description: Plasmids were constructed using standard recombinant DNA techniques; see Sambrook, J., et al., Molecular Cloning: A Laboratory Manual, 2nd Edition (1989), Cold Spring Harbor Press, Cold Spring Harbor, NY. Plasmid pTHBV contains a head-to-tail dimer of the human Hepatitis B Virus (HBV) genome, subtype adw, clone into the EcoR I site of pUC9. […] and subcloned into the Sal I site of pTHBV after a two base fill-in reaction with the Klenow fragment of E. coli DNA polymerase I.
HepG2 cells (human hepatoblastoma, ATCC HB 8065) were routinely passaged in growth medium consisting of EARLE'S minimal essential media (Grand Island Biological Company (GIBCO) Bethesda Research Laboratories (BRL), Life Technologies, Inc., Gathersburg, MD.) supplemented with sodium pyruvate, 10 percent fetal bovine serum, 100 units/ml penicillin, and 100 µg/ml streptomycin. Hep10A cells were derived from HepG2 cells. Briefly, HepG2 cells were seeded into 60 mm culture dishes in growth medium, and when approximately 50 percent confluent, were transfected with pTHBVneo using the calcium phosphate precipitation method described by Graham, F.L. and Van der Eb in Virology, 52, p 456-467 (1973). After four hours of post-transfection, the cells were shocked with 10 percent dimethylsulfoxide and 20 percent glucose for 5 minutes, after which they were allowed to recover for 24 horus. The transfected cells were passaged and reseeded in the presence of growth medium containing 800 µg/ml geneticin. The cells were monitored for the appearance of geneticin resistant cells. A genecitin resistant cell line was established, and routinely passaged in growth medium containing 400 µg/ml geneticin. This cell line will be referred to as Hep10A.
Hep10A cells were seeded into 96-well microtiter plates at a density of approximately 50,000 cells per well, allowed to grow to confluence, and maintained at confluence for 2 to 4 days to allow Hepatitus B Virus derivative HBV DNA levels to stabilize; see Sells, M.A., et al., J. Virol., 62, p 2836-2844 (1987) and Korba, B.E., et al., Antiviral Res., 15, p 217-228 (1991). At this time, cells were treated with 2'-deoxy-2'-fluoroarabino-5-iodouridine (FIAU) and the compound of Example 5 for 10 days, with daily changes of media containing fresh drug. FIAU was used as a positive control. On day 10, culture supernatant samples were taken and stored at 4°C until needed. PCR analysis was performed on supernatant samples using appropriate primers to amplify a 477 base pair fragment from the "a" determinant of the surface antigen gene of HBV subtype adw. Following eletrophoresis through agarose gels, the DNA was transferred to nylon membranes (Optiblot™, IBI, New Haven, CT) by capillary action (Southern, 1975) using 1X saline sodium citrate (SSC) (1X SSC=0.15 M NaCl, 0.015 M sodium citrate). After baking in vacuo for 30 minutes, the blots were hybridized for 15 to 18 hours to 1x10⁶ cpm/ml of […] the method of random priming (Feinberg and Vogelstein, 1983). Hybridization was carried out at 42°C using 50 percent N,N-dimethylformamide, 6X saline sodium phosphate ethylenediamine tetraacetic acid (SSPE), 1.0 percent sodium dodyl sulfate (SDS), and 50 µg/ml salmon sperm DNA (1X SSPE=0.18 M NaCl; […] NaH₂PO₄, pH 7.4; 1 mmol ethylene diamine tetraacetic acid (EDTA)). The hybridized blots were washed as follows: twice in 2X SSC/0.1 percent SDS at room temperature for 1 hour, once in 0.1X SSC/0.1 percent SDS at room temperature for 30 minutes, and once in 0.1x SSC/0.1 percent supplemented with SDS at 65°C for 15 minutes. The filters were exposed to x-ray film and quantitated by densitometry.

[2] = read-out: Percent Inhibition at Specified µg/ml conc.

CNc1nc(N)nc2c1ncn2[C@@H]1O[C@H](CO)[C@@H](O)C1(F)F [Example 5, 2-deoxy-2,2-difluoro-D-ribofuranosyl-1-β-(2-amino-6-methylaminopurine)]
inhibition at 0.2 µg/mL ([1]; Human betaherpesvirus 5, AD169, 240 h, 0.2 µg/ml, WI-38 cells, 10 days): 24%
inhibition at 0.4 µg/mL ([1]; Human betaherpesvirus 5, AD169, 240 h, 0.4 µg/ml, WI-38 cells, 10 days): 17.2%
inhibition at 0.8 µg/mL ([1]; Human betaherpesvirus 5, AD169, 240 h, 0.8 µg/ml, WI-38 cells, 10 days): 38%
inhibition at 1.6 µg/mL ([1]; Human betaherpesvirus 5, AD169, 240 h, 1.6 µg/ml, WI-38 cells, 10 days): 41.4%
inhibition at 6.25 µg/mL ([1]; Human betaherpesvirus 5, AD169, 240 h, 6.25 µg/ml, WI-38 cells, 10 days): 86.2%
inhibition at 12.5 µg/mL ([1]; Human betaherpesvirus 5, AD169, 240 h, 12.5 µg/ml, WI-38 cells, 10 days): 81%
inhibition at 25 µg/mL ([1]; Human betaherpesvirus 5, AD169, 240 h, 25 µg/ml, WI-38 cells, 10 days): 89.6%
inhibition at 3.12 µg/mL ([1]; Human betaherpesvirus 5, AD169, WI-38, 240 h): 62%
inhibition at 0.1 µg/mL (Hepatitis B Virus; [2]): 56.9%
inhibition at 1 µg/mL (Hepatitis B Virus; [2]): 81.9%
inhibition at 10 µg/mL (Hepatitis B Virus; [2]): 84.6%
inhibition at 100 µg/mL (Hepatitis B Virus; [2]): 83.9%
IC50 (Hepatitis B Virus; read-out: concentration required to inhibit HBV DNA replication by 50 percent): < 0.1 µg/mL
